Values joined by “and” are separate entries in the source; they are usually repeats but may differ in a detail not shown here. Equal entries are not always repeated.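 Assay format: 96-well plates, 48-hour exposure. GI50 is the concentration that inhibits growth by half. TGI: concentration producing complete growth inhibition.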
Tests used:
Assay in all cases: inhibition of tumour cell growth, NCI panel, 48 h
HOP-18 NSCLC = system: HOP-18 NSCLC
DMS 273 small cell lung = system: DMS 273 small cell lung
SNB-78 CNS = system: SNB-78 CNS
KM20L2 colon = system: KM20L2 colon
RXF-631 renal = system: RXF-631 renal
DLD-1 colon = system: DLD-1 colon
DMS 114 small cell lung = system: DMS 114 small cell lung
MDA-MB-435 = system: MDA-MB-435
MDA-N = system: MDA-N

Structure (SMILES)	TGI (DMS 273 small cell lung) [µM]	TGI (SNB-78 CNS) [µM]	TGI (KM20L2 colon) [µM]	TGI (DLD-1 colon) [µM]	TGI (DMS 114 small cell lung) [µM]	TGI (MDA-MB-435)	GI50 (MDA-MB-435)	further results
C1=C(c2ccccc2)C(OC2Oc3ccccc3C=C2c2ccccc2)Oc2ccccc21 (configuration not stated)	> 100	> 100	> 100	> 100	> 100			TGI (HOP-18 NSCLC): > 100 µM; TGI (RXF-631 renal): > 100 µM
C1CCN2CC3CONC3C2C1 (configuration not stated)	> 100	> 100	> 100	> 100	> 100			
O=c1[nH]c(=O)n(C2CC(O)C(O)C(CO)O2)cc1F (configuration not stated)		> 100	> 100	> 100	> 100			TGI (HOP-18 NSCLC): > 100 µM; TGI (RXF-631 renal): > 100 µM
O=CC(O)C(O)C(OC1OC(CO)C(O)C(O)C1O)C(O)CO (configuration not stated) (tested in a mixture with another compound)						> 100 µM		
O=C(O)C1=C(C(=O)O)Oc2ccccc2O1	> 100	> 100	> 100	> 100	> 100			TGI (HOP-18 NSCLC): > 100 µM
COc1cc2c(cc1OC)C(SC)C(=O)N(Cc1cccc(OC)c1OC)CC2 (configuration not stated)	12.2	5.19	> 100	> 100	5.49	8.36 µM		TGI (HOP-18 NSCLC): > 100 µM; TGI (MDA-N): 1.53 µM
Nc1ccn([C@@H]2S[C@H](CO)[C@@H](O)[C@@H]2F)c(=O)n1						> 100 µM	0.18 µM	
O=C1c2ccccc2-c2c1c1ccc([N+](=O)[O-])cc1c(=O)n2CCCCl						> 100 µM	31.7 µM	
CC(C)=CC(=O)CC(=O)C(=O)NCCNC(=O)C(=O)CC(=O)C=C(C)C	> 50	> 50	> 50	> 50	> 50			TGI (HOP-18 NSCLC): > 50 µM
Cc1c(C)c2ccc(OC(C)C(=O)O)cc2oc1=O (configuration not stated)		> 100	> 100	> 100	> 100			TGI (HOP-18 NSCLC): > 100 µM; TGI (RXF-631 renal): > 100 µM
CCc1ccc(C2=NN(c3ccc(S(C)(=O)=O)cc3)C(=O)CC2)cc1						0.804 µM	0.212 µM	
COc1ccc(C(=O)/C=C/c2ccc(OCc3ccccc3)c(OC)c2)cc1OC						> 100 µM	2.97 µM	
O=C(CN(/C=C/C(=O)C(F)(F)F)c1ccccc1)c1ccc(F)cc1						72.1 µM	27.1 µM	
Cn1c(CC(O)c2nc3ccccc3n2C)nc2ccccc21 (configuration not stated)						> 44.4 µM		TGI (MDA-N): > 100 µM
CN(c1ccc(NC(=O)NCCN2CCOCC2)cc1)c1ccnc(Nc2ccc(CS(C)(=O)=O)cc2)n1						> 25 µM	> 25 µM	
N=C(N)c1ccc(OCCCCCOc2ccc(C(=N)N)cc2)cc1						13.4 µM and 23.2 µM and 42.9 µM	3.99 µM	TGI (MDA-N): 26.5 µM and 36 µM
CC1=C(C(=O)CC(=O)C(=O)Nc2ccccc2C)Sc2ccccc2N1	> 100	> 100	> 100	> 67.9				TGI (HOP-18 NSCLC): > 100 µM
Cc1cc(OC(=O)c2c(C)cc(OC(=O)c3c(C)cc(O)cc3O)cc2O)cc(O)c1C(=O)O	> 100	> 100	> 100	> 100	> 100			TGI (RXF-631 renal): > 100 µM
CC1(C)CC(O)CC(C)(C)N1.CC1(C)CC(O)CC(C)(C)N1.CC1(C)CC(O)CC(C)(C)N1.CC1(C)CC(O)CC(C)(C)N1.Cl.[Ti]	> 100	> 100	> 100	> 100	> 100			GI50 (HOP-18 NSCLC): > 100 µM; TGI (HOP-18 NSCLC): > 100 µM; GI50 (DMS 273 small cell lung): > 100 µM; GI50 (SNB-78 CNS): > 100 µM; GI50 (KM20L2 colon): > 100 µM; GI50 (RXF-631 renal): > 100 µM; TGI (RXF-631 renal): > 100 µM; GI50 (DLD-1 colon): > 100 µM; GI50 (DMS 114 small cell lung): > 100 µM
Oc1c(I)cc(Cl)c2cccnc12						> 100 µM	4.2 µM and 32.8 µM	

Structure (SMILES)	TGI (DMS 273 small cell lung) [µM]	TGI (SNB-78 CNS) [µM]	TGI (KM20L2 colon) [µM]	TGI (DLD-1 colon) [µM]	TGI (DMS 114 small cell lung) [µM]	TGI (MDA-MB-435)	GI50 (MDA-MB-435)	further results
OC1CSCCSCCCSCCSC1						> 100 µM		TGI (MDA-N): > 100 µM
O=S(=O)(NCCCNc1nccc(-c2c(-c3cccc(F)c3)nc3occn23)n1)c1cccc2ccccc12						> 100 µM	3.75 µM	
COC(=O)c1ccc2c(c1)C(=O)c1c-2n(CCCCl)c(=O)c2cc(OC)c(OC)cc12						> 100 µM	> 100 µM	
Cc1cc2c(cc1C)[n+](=O)c(C(=O)/C=C/c1ccccc1[N+](=O)[O-])c(C)n2[O-]	> 94.5	> 80.9	> 100	> 100	49.1	> 100 µM		TGI (HOP-18 NSCLC): > 93.6 µM; TGI (MDA-N): > 100 µM
CCN(CC)CCCNc1c2ccc(Cl)cc2nc2ccc(OC)cc12						2.04 µM	0.0614 µM	
CCOC(=O)COc1cccc2occc(=O)c12	> 100	> 100	> 100	> 100	> 100			
N#Cc1cccc(C2C3=C(COC3=O)N(CCO)c3cc4c(cc32)CCC4)c1 (configuration not stated)						0.0662 µM	0.0171 µM	
Cc1n(Cc2ccc3ccccc3n2)cc[n+]1Cc1ccc2ccccc2c1						2.69 µM	0.412 µM	
COC(=O)[C@]1(C)CCCC2(C)C3=C(CCC21)CC1(CC3)SCCS1 (some centres not stated)						> 10 µM		TGI (MDA-N): > 10 µM
CN1CC[C@]23c4c5ccc(O)c4OC2c2[nH]ncc2C[C@H]3[C@H]1C5 (some centres not stated)						> 100 µM		
C=CC(C)(O)CCC1C(=C)C(O)CC2C(C)(C)CCCC12C (configuration not stated)						41.8 µM		TGI (MDA-N): 34.6 µM
O=C(Nc1ccc(Cl)c(C(F)(F)F)c1)C(=O)c1c(O)c2ccccc2oc1=O						> 100 µM		TGI (MDA-N): > 100 µM
Cc1ccc(NC(=O)c2ccc(NC3=C(Cl)C(=O)N(Cc4ccccc4)C3=O)cc2)cc1Cl						> 100 µM	24 µM	
Cc1ccc(NC2=CC(=O)C(=O)c3ccccc32)c(C)c1						3.48 µM	1.79 µM	
CC(C)C/C(=N\NC(=O)c1ccncc1)c1cc(Cl)ccc1O						44.9 µM	0.682 µM	
Nc1nc(-c2ccccc2)cc(-c2cc(Cl)ccc2O)n1	> 100	> 100	> 100	> 100	> 100			TGI (HOP-18 NSCLC): > 100 µM; TGI (RXF-631 renal): > 100 µM
O=S(=O)(Cc1ccccc1)SCc1ccccc1	98.2	48.2	40.1	21.9	32			TGI (HOP-18 NSCLC): 84.3 µM; TGI (RXF-631 renal): 36.4 µM
O=C(/C=C/c1cccc(Oc2ccc(Cl)cc2)c1)c1ccccc1						50.9 µM	21.9 µM	
CC(=O)OC1COC(Oc2c(C)c3c4c(c2O)[C@@H](C)CC[C@@H]4[C@@H](C)C[C@H]3C=C(C)C)C(O)C1O (some centres not stated)						30.6 µM	15.4 µM	
C=CC[PH+](c1ccccc1)c1ccccc1.C=CC[PH+](c1ccccc1)c1ccccc1.[Pt+2].[S-]c1ncccn1.[S-]c1ncccn1						33.8 µM	16.3 µM	

From PubChem BioAssay (NCI)
